Entries after “also recorded” stand apart in the source; their conditions may differ. Where no end group is shown, it is not given here.
Tests used:
[1] = system: ROS generation in LNCaP cells; assay: ROS generation (CM-H2DCFDA), LNCaP/C81 cells; assay type: cell-based; settings: Fig. 4A
Method: Intracellular ROS levels were evaluated using the fluorescent probe 5-(and-6)-chloromethyl-2′,7′-dichlorodihydrofluorescein diacetate (CM-H2DCFDA) (Invitrogen). After treatments with Peptide A-8R, C81 cells were loaded with 20 µM CM-H2DCFDA and incubated at 37°C for 30 min in the dark. Cells were then washed with PBS and fluorescence was measured at the excitation and emission wavelengths of 490 and 535 nm, respectively, using a multi-well fluorescence plate reader. For NAC (N-acetyl cysteine) (Sigma) rescue experiment, cells were pretreated with 1 or 5 mM NAC for 2 hours before adding Peptide A-8R.
Figure 4 Peptide A-8R kills prostate cancer cells by mediating ROS generation. (A) C81 cells were treated with Vehicle or different µMolar concentrations of Peptide A-8R and without or with 0–5 mM NAC and monitored for ROS generation after 0–30 min as measured by fluorescence intensity (FI). Bar graphs represent averages of three independent experiments plus standard deviations. Note that asterisks on bar graphs found with NAC are compared to equivalent data without NAC. (B) C81 cells were treated with Vehicle or different concentrations of Peptide A-8R, as shown, and 0–5 mM NAC, as shown, and monitored for cell number after 0–6 days of incubation as measured by MTT assay. Data points represent averages of three independent experiments plus standard deviations. Asterisks indicate statistical significance (P<0.04). (C) C81 cells were treated with Vehicle or different concentrations of Peptide A-8R, as shown, and with or without 5 mM NAC, as shown, and monitored DNA damage after 1 hr incubation as measured by Comet assay.

[2] = system: C81 xenograft tumors; assay: C81 mouse xenograft tumor study; assay type: in vivo
Method: 2×10^6 C81 cells in 50 µL of growth medium was mixed with 50 µL Matrigel (BD Biosciences) and injected into both flanks of 4–6-week old SCID male mice. When tumor sizes reached 200 mm^3, 50 µL of Peptide A-8R (40 mg Peptide A-8R/Kg of animal) or Vehicle (DMSO) was directly injected into the tumors every other day. Injections were stopped after 5 times and tumors were measured every 3 days. Mice were euthanized after 3 weeks and tumors were excised. All procedures were approved by the University of Toledo Division of Lab Animal Recourses (DLAR). Protein extracts were prepared by boiling the tumor tissue in 3× SDS buffer, and evaluated by SDS-PAGE gel.
This study was carried out in strict accordance with the recommendations in the Guide for the Care and Use of Laboratory Animals of the National Institutes of Health. The protocol was approved by the Institutional Animal Care and Use Committee of the University of Toledo (Protocol Number: 106418). During the experiments all animals were monitored daily for morbidity and all efforts were made to minimize suffering. At the end of the study all animals were euthanized using inhalation of carbon dioxide, after which surgery was performed to excise tumors from all animals.
(A) Mouse xenograft tumors derived from C81 cells were treated with Vehicle or Peptide A-8R, after which they were allowed to grow for an additional three weeks without treatment. Data points represent average tumor size of three animals for each treatment plus standard deviations. Note that there is a statistical difference (P<0.00004) in average tumor size for each day of tumor measurement. Arrow represents day of last injection of Vehicle or Peptide A-8R. […] Bar graphs represent averages of each set of three tumors plus standard deviations. Asterisks indicate statistical significance (P<0.02). (C) Two tumors, one on each flank of the same animal, were treated with either Vehicle or Peptide A-8R.

Ac-TFCKAFPFHIIRRRRRRRR [Peptide A-8R]
ROS induction ([1]; 0–30 min, fluorescence 490/535 nm, S5B, averages of three independent experiments): significant ROS induction in LNCaP cells within 30 minutes
ROS generation at 50 µM ([1]; 50 µM): decreased with 50 µM; also recorded: minimal ROS induction; also recorded: lowest induction of ROS
ROS generation, concentration dependence ([1]; 10 to 25 µM): rose when Peptide A-8R concentration was increased from 10 to 25 µM
tumor growth during five injections, C81 xenograft ([2]; 40 mg/Kg intratumoral, every other day, 5 times, Fig. 6A, 6B, three animals per treatment, P<0.00004): stopped tumor growth and actually caused some tumor regression during the five injections of peptide
anti-tumor activity, C81 xenograft (summary) ([2]; intra-tumoral injection): able to stop tumor growth; also recorded: blocks the growth of castration-resistant prostate tumors; also recorded: strong anti-cancer activity
tumor growth three weeks after treatment stopped, C81 xenograft ([2]; three weeks after last injection, Vehicle tumors grew more than three-fold, Fig. 6A): did not grow at all three weeks after Peptide treatment was stopped
tumor size in same animal, Peptide- vs Vehicle-treated flank ([2]; two tumors, one per flank of same mouse, Fig. 6C): markedly smaller than the Vehicle-treated tumor
